Assay results reported in US5010059A, “Pharmaceutical products and lactosyl compounds” (Solco Basel AG, priority 1987, dated 1991).
Values joined by “and” are separate entries in the source; they are usually repeats but may differ in a detail not shown here. Identical values can stand only once. Like-named read-outs stand apart in the source and are kept apart here.

Tests used:
GalN/endotoxin hepatitis [1] = conditions: *p ≤ 0.01, **p ≤ 0.001; indomethacin 9 mg/kg; diethylcarbamazine 78 mg/kg i.p. every 45 minutes between 0 and 6 hours; dexamethasone 200 μg/kg i.p.; cited from earlier work
cutaneous necrosis = assay: skin flap test (action promoting healing); type: in vivo, Wistar rats; conditions: for Area of surviving skin in mm^2 / Area of the necrotic skin in mm^2 / Area of the skin flap / Area of surviving skin in % / Area of the necrotic skin in %: 1.5 ml i.p. daily for 8 days; for Area of surviving skin in mm^2 / Area of the necrotic skin in mm^2 / Area of the skin flap: 5% concentration; for Area of surviving skin in % / Area of the necrotic skin in %: % of skin flap; for Action of the compound in %: increase in area of surviving skin as percentage compared with control
Description: Various pharmacological tests can be used to test for any therapeutically beneficial effect on damaged cells and tissues. An action promoting healing can be estimated and measured, in particular, by using the so-called skin flap test; the test is based on the development of a cutaneous necrosis and the inhibition thereof as a consequence of the action of the test substance.
Male Wistar rats of body weight 220-240 g in groups of 8 animals for each value which is to be determined are anesthetized with Nembutal (50 mg/kg, i.p.). A 1×3 cm skin flap is cut out, using a scalpel, from the back, is thoroughly washed and is returned to the original site and is sutured. The test animals are given the compound which is to be tested, in 5% concentration in aqueous solution (containing 0.2% ethanol and 1% polyethylene glycol of molecular weight 20,000--or Carbowax ®20; in each case 1.5 ml intraperitoneal), each day for 8 days; the control animals receive only the aqueous medium. Each day drawings are made of the skin flaps on the scale 1:1, with the necrotic sites being colored black. The animals are sacrificed after 8 days, and the drawings are evaluated using a Biotran apparatus, and the total area of the necrotic sites is measured in mm^2. The action promoting healing is expressed as the increase in the area of surviving skin as a percentage compared with the control.

GalN/endotoxin hepatitis [2] = assay: GalN/endotoxin hepatitis, cytoprotective effect of the compounds; type: in vivo, albino mice of the NMRI strain; conditions: 200 μg/kg i.p. 1 hour before GalN/endotoxin; serum 9 hours later; n.s. not significant, *p ≤ 0.05, **p ≤ 0.01
Description: In order to gain a deeper insight into the pharmacological properties of the compounds of the formula I, they have been examined for any cytoprotective effects they may have. The cytoprotective effect can be shown, inter alia, by the method described by A. Wendel and G. Tiegs in Biochemical Pharmacology 35 (1986), 2115-2118. This is based on the impairment of liver function as a consequence of sensitization of the liver due to administration of D-galactosamine and simultaneous treatment with endotoxins.
D-galactosamine (abbreviated to GalN) causes in animals liver damage which is regarded as a model for human viral hepatitis. The mechanism is assumed to be an accumulation of toxic galactosamine derivatives in the liver, which results in a diminution in the biosynthesis of macromolecules such as ribonucleic acids, proteins, glycoproteins and glycogens. These changes in the metabolism may in turn result in cell damage or even death of cells in the liver. The extent of liver damage can be determined by the increase in certain liver enzymes (sorbitol dehydrogenase SDH, serum glutamic-oxalic transaminase SGOT, serum glutamic-pyruvic transaminase SGPT) in the blood and by histology of the liver.
The test is carried out as follows.
Male albino mice of the NMRI strain are pretreated intraperitoneally with 200 μg/kg test substance and, 1 hour thereafter, treated intraperitoneally with 700 mg/kg D-galactosamine and 33 μg/kg endotoxins. 9 hours later, blood is removed by cardiac puncture, and the enzymatic activity in the blood serum is determined according to H. U. Bergmeyer [Methods in Enzymatic Analysis, 3rd edition (1985), volume III]. In this experimental model, the […] (Kupffer cells) actually function as immobilized macrophages.
The content of the liver enzymes SDH, SGOT and SGPT in the serum is expressed in international units (IU) for the enzyme activity; 1 IU=1 μmol of substrate converted/minute in one liter.

acute toxicity testing = type: in vivo; parameters: Weight on May 10, 1988 / Weight on May 20, 1988: unit not given here
Description: Two groups each of ten mice were observed and weighed each day for 10 days. The animals in the control group each received intraperitoneal administration of 500 μl of a 5 mmol/l solution of Pluronic ® F 68 (manufactured by BASF Wyandotte, Erbsloh/FRG) in physiological saline, while those in the test group received 500 μl of a solution of 6 mg of the compound named above in 6 ml of Pluronic® F 68.

SMILES: C[C@@H]1C[C@H]2[C@@H]3CCC4=CC(=O)C=C[C@]4(C)[C@@]3(F)[C@@H](O)C[C@]2(C)[C@@]1(O)C(=O)CO [Dexamethasone]
- SGOT (GalN/endotoxin hepatitis [1]): 140 ± 100
- SGPT (GalN/endotoxin hepatitis [1]): 100 ± 60

SMILES: CCN(CC)C(=O)N1CCN(C)CC1 [Diethylcarbamazine]
- SGOT (GalN/endotoxin hepatitis [1]): 270 ± 90
- SGPT (GalN/endotoxin hepatitis [1]): 290 ± 180

SMILES: CCCCCCCCCCCCCC=CC(O)C(COC1OC(CO)C(O)C(O)C1O)NC(=O)CCCCCCCCCCCCCCC [Gal(Pal)-D-Sph]
- Area of surviving skin in mm^2 (cutaneous necrosis): 191.8 ± 18.9 mm^2
- Area of the necrotic skin in mm^2 (cutaneous necrosis): 81.4 ± 18.5 mm^2
- Area of the skin flap (cutaneous necrosis): 273.3 ± 5.2 mm^2
- Area of surviving skin in % (cutaneous necrosis): 70.2%
- Area of the necrotic skin in % (cutaneous necrosis): 29.8%
- Action of the compound in % (cutaneous necrosis): +31.2%
- SDH (GalN/endotoxin hepatitis [2]): 2400 ± 2800 IU/liter
- SGOT (GalN/endotoxin hepatitis [2]): 1030 ± 1150 IU/liter
- SGPT (GalN/endotoxin hepatitis [2]): 2990 ± 3510 IU/liter

SMILES: CC/C=C\C/C=C\C/C=C\CCCCCCCC(=O)N[C@@H](CO[C@@H]1O[C@H](CO)[C@@H](O)[C@H](O)[C@H]1O)[C@H](O)/C=C/CCCCCCCCCCCCC [Glu(Linolen)-D-Sph]
- Area of surviving skin in mm^2 (cutaneous necrosis): 107.4 ± 27.3 mm^2
- Area of the necrotic skin in mm^2 (cutaneous necrosis): 184.1 ± 28.9 mm^2
- Area of the skin flap (cutaneous necrosis): 291.5 ± 5.5 mm^2
- Area of surviving skin in % (cutaneous necrosis): 37.2%
- Area of the necrotic skin in % (cutaneous necrosis): 62.8%
- Action of the compound in % (cutaneous necrosis): +144.7%
- SDH (GalN/endotoxin hepatitis [2]): 2280 ± 355 IU/liter
- SGOT (GalN/endotoxin hepatitis [2]): 940 ± 170 IU/liter
- SGPT (GalN/endotoxin hepatitis [2]): 3350 ± 630 IU/liter

SMILES: CCCCCCCCCCCCC/C=C/[C@@H](O)[C@H](CO[C@@H]1O[C@H](CO)[C@@H](O)[C@H](O)[C@H]1O)NC(=O)CCCCCCCCCCCCCCC [Glu(Pal)-D-Sph]
- Area of surviving skin in mm^2 (cutaneous necrosis): 144.1 ± 9.1 mm^2
- Area of the necrotic skin in mm^2 (cutaneous necrosis): 113.3 ± 10.6 mm^2
- Area of the skin flap (cutaneous necrosis): 257.4 ± 6.2 mm^2
- Area of surviving skin in % (cutaneous necrosis): 56.2%
- Area of the necrotic skin in % (cutaneous necrosis): 43.8%
- Action of the compound in % (cutaneous necrosis): +30.1%
- SDH (GalN/endotoxin hepatitis [2]): 4720 ± 2320 IU/liter
- SGOT (GalN/endotoxin hepatitis [2]): 910 ± 425 IU/liter
- SGPT (GalN/endotoxin hepatitis [2]): 3950 ± 2260 IU/liter

SMILES: CCCCCCCCCCCCCC=CC(O)C(COC1OC(CO)C(O)C(O)C1O)NC(=O)CCCCCCCCCCCCCCC [Glu(Pal)-L-Sph]
- Area of surviving skin in mm^2 (cutaneous necrosis): 178.6 ± 16.8 mm^2
- Area of the necrotic skin in mm^2 (cutaneous necrosis): 85.8 ± 14.7 mm^2
- Area of the skin flap (cutaneous necrosis): 264.4 ± 2.6 mm^2
- Area of surviving skin in % (cutaneous necrosis): 67.3%
- Area of the necrotic skin in % (cutaneous necrosis): 32.7%
- Action of the compound in % (cutaneous necrosis): +55.8%
- SDH (GalN/endotoxin hepatitis [2]): 1690 ± 1680 IU/liter
- SGOT (GalN/endotoxin hepatitis [2]): 410 ± 360 IU/liter
- SGPT (GalN/endotoxin hepatitis [2]): 1470 ± 1460 IU/liter

SMILES: COc1ccc2c(c1)c(CC(=O)O)c(C)n2C(=O)c1ccc(Cl)cc1 [Indomethacin]
- SGOT (GalN/endotoxin hepatitis [1]): 480 ± 475
- SGPT (GalN/endotoxin hepatitis [1]): 730 ± 1,040

SMILES: CCCCC/C=C\C/C=C\C/C=C\C/C=C\CCCC(=O)N[C@@H](CO[C@@H]1O[C@H](CO)[C@@H](O[C@@H]2O[C@H](CO)[C@H](O)[C@H](O)[C@H]2O)[C@H](O)[C@H]1O)[C@H](O)/C=C/CCCCCCCCCCCCC [Lac(Arach)-D-Sph]
- Area of surviving skin in mm^2 (cutaneous necrosis): 211.6 ± 33.3 mm^2
- Area of the necrotic skin in mm^2 (cutaneous necrosis): 111.5 ± 25.8 mm^2
- Area of the skin flap (cutaneous necrosis): 323.1 ± 10.4 mm^2
- Area of surviving skin in % (cutaneous necrosis): 64.1%
- Area of the necrotic skin in % (cutaneous necrosis): 35.8%
- Action of the compound in % (cutaneous necrosis): +36.8%
- SDH (GalN/endotoxin hepatitis [2]): 355 ± 425 IU/liter
- SGOT (GalN/endotoxin hepatitis [2]): 280 ± 260 IU/liter
- SGPT (GalN/endotoxin hepatitis [2]): 290 ± 210 IU/liter

SMILES: CC/C=C\C/C=C\C/C=C\CCCCCCCC(=O)N[C@@H](CO[C@@H]1O[C@H](CO)[C@@H](O[C@@H]2O[C@H](CO)[C@H](O)[C@H](O)[C@H]2O)[C@H](O)[C@H]1O)[C@H](O)/C=C/CCCCCCCCCCCCC [Lac(Linolen)-D-Sph, (2S,3R,4E)-1-[4-0-(β-D-Galactopyranosyl)-β-D-glucopyranosyloxy-oxy]-2-[(9Z,12Z,15Z)-9,12,15-octadecatrienoylamino]-4-octadecen-3-ol]
- Area of surviving skin in mm^2 (cutaneous necrosis): 195.9 ± 35.5 mm^2
- Area of the necrotic skin in mm^2 (cutaneous necrosis): 128.1 ± 34.2 mm^2
- Area of the skin flap (cutaneous necrosis): 324.0 ± 10.0 mm^2
- Area of surviving skin in % (cutaneous necrosis): 60.4%
- Area of the necrotic skin in % (cutaneous necrosis): 39.6%
- Action of the compound in % (cutaneous necrosis): +22.0%
- SDH (GalN/endotoxin hepatitis [2]): 290 ± 250 IU/liter
- SGOT (GalN/endotoxin hepatitis [2]): 124 ± 55 IU/liter
- SGPT (GalN/endotoxin hepatitis [2]): 230 ± 76 IU/liter

SMILES: CCCCCCCCCCCCC/C=C/[C@@H](O)[C@H](CO[C@@H]1O[C@H](CO)[C@@H](O[C@@H]2O[C@H](CO)[C@H](O)[C@H](O)[C@H]2O)[C@H](O)[C@H]1O)NC(=O)CCCCCCCCCCCCCCC [Lac(Pal)-D-Sph, (2S,3R,4E)-1-[4-0-(8-D-galactopyranosyl) -β-D-glucopyranosyloxy]-2-hexadecanoylamino-4-octadecen-3-ol]
- Area of surviving skin in mm^2 (cutaneous necrosis): 197.6 ± 12.6 mm^2
- Area of the necrotic skin in mm^2 (cutaneous necrosis): 113.2 ± 13.0 mm^2
- Area of the skin flap (cutaneous necrosis): 310.9 ± 6.9 mm^2
- Area of surviving skin in % (cutaneous necrosis): 63.8%
- Area of the necrotic skin in % (cutaneous necrosis): 36.2%
- Action of the compound in % (cutaneous necrosis): +47.3%
- SDH (GalN/endotoxin hepatitis [2]): 80 ± 30 IU/liter
- SGOT (GalN/endotoxin hepatitis [2]): 80 ± 20 IU/liter
- SGPT (GalN/endotoxin hepatitis [2]): 110 ± 70 IU/liter

SMILES: CCCCCCCCCCCCC/C=C/[C@H](O)[C@@H](CO[C@@H]1O[C@H](CO)[C@@H](O[C@@H]2O[C@H](CO)[C@H](O)[C@H](O)[C@H]2O)[C@H](O)[C@H]1O)NC(=O)CCCCCCCCCCCCCCC [Lac(Pal)-L-Sph, (2R,3S,4E)-1-[4-0-(8-D-galactopyranosyl) -β-D-gluco-pyranosyloxy]-2-hexadecanoylamino-4-octadecen-3-ol]
- Area of surviving skin in mm^2 (cutaneous necrosis): 182.8 ± 11.3 mm^2
- Area of the necrotic skin in mm^2 (cutaneous necrosis): 112.7 ± 13.3 mm^2
- Area of the skin flap (cutaneous necrosis): 295.5 ± 6.4 mm^2
- Area of surviving skin in % (cutaneous necrosis): 62.3%
- Area of the necrotic skin in % (cutaneous necrosis): 37.7%
- Action of the compound in % (cutaneous necrosis): +43.9%
- SDH (GalN/endotoxin hepatitis [2]): 80 IU/liter
- SGOT (GalN/endotoxin hepatitis [2]): 120 ± 80 IU/liter
- SGPT (GalN/endotoxin hepatitis [2]): 80 ± 20 IU/liter
- special reactions immediately after the injection (acute toxicity testing; about 20 mg/kg i.p.): nor were any special reactions immediately after the injection
- toxic signs (acute toxicity testing; about 20 mg/kg i.p., during the experiment and days which followed): no toxic signs
- weight gain versus control group (acute toxicity testing; about 20 mg/kg i.p., test versus control group): strictly comparable in respect of weight gain
- mortality (acute toxicity testing; mouse, in vivo): No mortality
- Weight on May 20, 1988 (acute toxicity testing; test group, individual animals, 10 days, about 20 mg/kg i.p.): 35.7 and 33.0 and 35.0 and 34.9 and 34.4 and 39.9 and 28.8 and 34.0 and 30.5 and 31.9
- Weight difference (acute toxicity testing; test group, individual animals, May 10 to May 20, about 20 mg/kg i.p.): +6.6 g and +6.0 g and +7.3 g and +7.0 g and +7.7 g and +9.7 g and +4.3 g and +6.4 g and +3.9 g and +5.6 g
- Weight on May 10, 1988 (acute toxicity testing; test group, individual animals, before/at i.p. dosing (about 20 mg/kg)): 29.1 and 27.0 and 27.7 and 27.9 and 26.7 and 30.2 and 24.5 and 27.6 and 26.6 and 26.3
